Measured values published in patent US9353157B2 (priority 2007, dated 2016).
Where “and” joins values, the source holds several entries; their conditions need not be identical. Identical values can stand only once. Ends that are not written are not given here.

Experiments:
influenza A virus = test: Plaque reduction / virus infectivity assays, influenza A virus (strain not specified); type: cell-based; conditions: for IC50: normal-sized plaques, read-out: potency in virus infectivity assays, normal-sized plaques
Protocol: (§1) Using an immunoplaque assay with AVICEL® microcrystalline cellulose as the overlay (Matrosovich et al., 2006), plaques are detected by fixing the monolayers and staining with a specific antibody to the influenza virus nucleoprotein. In the peptide inhibition assay, peptide is preincubated with about 100 plaque forming units (pfu) of the virus for approximately 1 hour, then used to infect the monolayers. Two conditions were used for the incubation: (1) standard condition in which the peptide is included in the overlay at the same concentration that was used in the preincubation step, or (2) a condition in which the peptide is not included in the overlay.
(§2) F3 was evaluated for inhibition of multiple subtypes of influenza A viruses utilizing Madin-Darby Canine Kidney (“MDCK”) cell plaque assays performed using the A/WSN/33 (H1N1) and A/Udorn/72 (H3N2) subtypes of influenza A virus. Dilutions of 50 μM to 2.5 μM of F3 and the randomly scrambled control peptide (SEQ ID NO: 14) were used to evaluate the effects of these peptides on viral infectivity. Six dilutions of F3 and of the control peptide were tested against the H1N1 viral subtype; and another six dilutions of each peptide were tested against the H3N2 viral subtype.

influenza A/Cal/07/04 = system: influenza A/Cal/07/04; set-up: species or system ferret; conditions: in vivo; for ferrets with significant respiratory distress, high fever, sneezing / signs of influenza: 0.3 mg/kg
[1] = system: H3N2 influenza A/Cal/07/04; set-up: species or system ferret; conditions: in vivo; for ferrets with significant/severe respiratory distress (high fever, sneezing): 0.3 mg/kg
[2] = system: influenza A/PR/8/34 (H1N1); test: Inhibition of influenza virus-induced hemagglutination, A/PR/8/34; type: cell-based; conditions: for concentration inhibiting influenza virus-induced hemagglutination: optimal numbers of red blood cells and concentrations of virus
Protocol: Studies have been conducted with various influenza strains to better understand the mechanism of action of the peptides of the invention, e.g., to determine which step in the viral replication cycle is inhibited by F3, F1, and related influenza virus inhibitory peptides. At optimal numbers of red blood cells and concentrations of influenza A/PR/8/34 (H1N1), both F3 and F1 inhibited influenza virus-induced hemagglutination at about 10 μM concentrations.

H3N2 influenza A virus = test: MDCK cell immunoplaque / plaque reduction assay, H3N2; type: cell-based; conditions: H3 influenza A virus subtype
Protocol: as §1, §2
(§3) At low nM concentrations (<10 nM) for condition (1), or low μM ([…]) for condition (2), the presence of “mini-plaques” were apparent.

H1N1 influenza A virus = test: MDCK cell immunoplaque / plaque reduction assay, H1N1; type: cell-based; conditions: H1 influenza A virus subtype
Protocol: as §1, §2, §3

[3] = system: influenza B (B/Shanghai/10/2003)
[4] = system: recombinant H5N1 influenza virus
[5] = system: influenza B (B/Shanghai/361/2002)

SWLVNKIYLTDDEVEL (Scrambled version of residues 84-99 of influenza A/H3 HA2) [scrambled control peptide, reference compound]
anti-viral properties (influenza A virus): no discernable anti-viral properties | inhibition of influenza A virus plaque formation (influenza A virus; under any condition (peptide in overlay or not)): did not inhibit | lung presentation (gross pathology) (influenza A/Cal/07/04): evidence of inflammation | tissue pathology (histopathology) (influenza A/Cal/07/04): infiltrations, bronchial inflammation, with bronchial exudates | ferrets with significant respiratory distress, high fever, sneezing / signs of influenza (influenza A/Cal/07/04): all 12 | ferrets displaying significant nasal discharge [1]: 100% | ferrets presenting with lethargy [1]: 50% | ferrets with significant/severe respiratory distress (high fever, sneezing) [1]: all | inhibition of hemagglutination ([2]; at any concentration): did not inhibit

VDDGFLDIWTYNAELLVLL [F1]
IC50 (influenza A virus): ~0.2 nM | antiviral activity in plaque assays (H3N2 influenza A virus): potent (picomolar) | antiviral activity in plaque assays (H1N1 influenza A virus): potent (picomolar) | concentration inhibiting influenza virus-induced hemagglutination [2]: about 10 μM

VEDTKIDLWSYNAELL-NH2 [F3]
anti-viral properties (influenza A virus): potent anti-viral properties | inhibition in plaque reduction assays (influenza A virus): picomolar inhibition | concentration at which mini-plaques were apparent (influenza A virus; condition (1): peptide included in the overlay): < 10 nM | IC50 (influenza A virus): ~0.2 nM | IC50 [3]: < 5 nM | IC50 [4]: < 5 nM | animals that developed mild signs of influenza (influenza A/Cal/07/04): two | lung presentation (gross pathology) (influenza A/Cal/07/04): normal lung presentations | pathological responses (respiratory distress, nasal discharge, activity), FIG. 6 (influenza A/Cal/07/04): significantly reduced pathological responses | reduction of peak titers of influenza virus in nasal washes (influenza A/Cal/07/04): greater than 2.0 log10 | reduction of peak titers of influenza virus in the lungs (influenza A/Cal/07/04): greater than 6.0 log10 | spread of the virus to the lower respiratory tract and to other organs (influenza A/Cal/07/04): effectively blocked | tissue pathology (histopathology) (influenza A/Cal/07/04): markedly reduced pathology | ferrets with significant respiratory distress, high fever, sneezing / signs of influenza (influenza A/Cal/07/04): none | IC50 [5]: < 5 nM | clinical signs of influenza [1]: no clinical signs of influenza | ferrets with very mild respiratory signs with slight fever [1]: 2/5 and 1/6 | ferrets with significant/severe respiratory distress (high fever, sneezing) [1]: none | concentration inhibiting influenza virus-induced hemagglutination [2]: about 10 μM
